The structures appear in SMILES notation. Values after ≈ are worked out from the molar mass of the structure shown.

What is called solubility is how much of the substance goes into solution per volume.

Series [1] is described as follows: Partition coefficient and apparent partition coefficient, n-octanol / phosphate buffer pH 7.4 at 25° C. It counts as physicochemical. The following applies: n-octanol / phosphate buffer pH 7.4, 25° C.; for Partition Coefficient: P = Co/Cw; for Apparent Partition Coefficient: Papp=P/(1+10^pKa-pH). How it is done:
Melting points (peak onset temperature) were determined by Differential Scanning Calorimetry using a Perkin Elmer DSC 7. The saturation solubilities were determined by shaking an excess of the compound in phosphate buffer pH 7.4 at 25° C. […] Pharmaceutical Press p70]:
where P=Co /Cw and where Co is the concentration of the drug in n-octanol and Cw is the concentration of the drug in phosphate buffer pH 7.4 at 25° C. Drug concentrations were determined by HPLC.

Series [2] can be described thus: Deliquescence of precipitate on standing. It counts as physicochemical.
For series [3] the following is noted: cited from earlier work.
The conditions of series [4]: dogs, sustained-release oral formulation study; cited from earlier work.
For series [5] the following is noted: by forming a complex with a fatty acid; cited from earlier work.
The conditions of series [6]: providing an appropriate pH gradient existed; cited from earlier work.
The nature of series [7]: Aqueous solubility (stated in the Examples). The following applies: aqueous solution. It is filed as physicochemical.
Series [8] in a line: Thermal decomposition seen in differential scanning calorimetry. It is filed as physicochemical. The conditions noted are these: DSC from 50 to 200° C. How it is done: Salbutamol base (1.2007 g; 5.02 mmol) was dissolved in ethanol (100 mL) with vigorous stirring. Glycodeoxycholic acid (2.4601 g; water content: 4.25% w/w; 5.25 mmol~5% molar excess) was added and dissolved with stirring. A clear, colourless solution was obtained. The ethanol was removed by vacuum rotary-evaporation to give a viscous, yellow residue. Ethyl acetate (200 mL) was added to the residue and the mixture heated in a water bath with constant agitation. As the yellow residue dissolved, a white precipitate formed. Agitation was continued until the yellow residue disappeared. The ethyl acetate solution was cooled in an ice bath. […] Analysis by differential scanning calorimetry from 50 to 200° C. gave no significant thermal event. Slow decomposition was evident after 110° C.
Background: In DSC, transitions show as peaks or steps in heat flow.

Consider `CC(C)(C)NCC(O)c1ccc(O)c(CO)c1` (stereo not drawn) [Salbutamol base], for which, in series [1], the “Partition Coefficient” value is 0,42 and the “Apparent Partition Coefficient” value is 0.005222. For `CNS(=O)(=O)Cc1ccc2[nH]cc(CCN(C)C)c2c1` [Sumatriptan base], in series [1], the “Partition Coefficient” value was 0,69 and the “Apparent Partition Coefficient” value is 0,004039. For `COc1ccc2c3c1O[C@H]1[C@@H](O)C=C[C@H]4[C@@H](C2)N(C)CC[C@@]341` [Codeine caprate, codeine caprate], the Deliquescence entry in series [2] is “very deliquescent”. `CCCCCCCC(=O)[O-].[Na+]` [sodium caprylate]: the “effect on rat nasal absorption of insulin” value (from here on “effect”) in series [3] is reported as “promoting effect”. For `CNS(=O)(=O)Cc1ccc2[nH]cc(CCN(C)C)c2c1` [Sumatriptan caprate, sumatriptan caprate], in series [1], the “Partition Coefficient” value was 1,54 and the “Apparent Partition Coefficient” value came out at 0.009015.

On to `CCCCCCCCCC(=O)[O-].[Na+]` [sodium caprate], for which, in series [3], the “effect” value was “promoting effect”. Regarding `CC(C)NCC(O)COc1cccc2ccccc12` (stereo not drawn) [propranolol laurate], the bioavailability result in series [4] is on record as “An increase in bioavailability was observed”.

As to `CCCCCCCCCCCC(=O)[O-].[Na+]` [sodium laurate], in series [3], the “effect” value is reported as “promoting effect”.

For the molecule `CC(C)NCC(O)COc1cccc2ccccc12` (stereo not drawn) [propranolol], in series [5], the “Penetration across the stratum corneum” value is listed as “a significant proportion of propranolol will penetrate across the stratum corneum”.

Turning to `CCCCCCCCCCCC(=O)O` [lauric acid], in series [6], the “Transport of cations across an iso-Pr myristate membrane” value is reported as “facilitated”.

`CC(C)(C)NCC(O)c1ccc(O)c(CO)c1` (stereo not drawn) [Salbutamol glycodeoxycholate, salbutamol glycodeoxycholate]: in series [7], the Aqueous solubility result is reported as “greater than 8.35 mg/mL”. For the same molecule, in series [1], the “Partition Coefficient” value is listed as 0,61 and the “Apparent Partition Coefficient” value is 0,007584. The “Slow decomposition evident after” value in series [8] was greater than 110 °C. Regarding `CCCCCCCC/C=C\CCCCCCCC(=O)O` [oleic acid], in series [6], the “Transport of cations across an iso-Pr myristate membrane” value is on record as “facilitated”. In series [7] (water), `CC(C)(C)NCC(O)c1ccc(O)c(CO)c1` (stereo not drawn) [Salbutamol caprate] showed a solubility of 4760 µg/mL (≈ 19.9 mM). For the same molecule, in series [1], the “Partition Coefficient” value is given as 0,54 and the “Apparent Partition Coefficient” value is 0,006714.

The record behind these values is patent US6255502A, “Pharmaceutical composition containing acid addition salt of basic drug” (Farmarc Nederland B.V., priority 1996, dated 2001).
